Assay results from patent publication US4183909A, “Phenylglycine-containing new peptides with gastrine effects and a process for the preparation thereof” (Richter Gedeon Vegyeszeti Gyar Rt., priority 1976, dated 1980).
Square brackets hold non-standard residues; d marks the D form. Peptide text beside a SMILES is read from it. * marks the point of attachment. dPhg = N[C@@H](C(=O)O)c1ccccc1; Phg = N[C@H](C(=O)O)c1ccccc1; X1 = CC(C)(C)OC(=O)NOCC(=O)*

Assays:
[1] = tested on: gastric acid secretion; test: Gastric acid secretion increasing effect, administered parenterally or enterally (methods of Ghosh and Schild and of Lai, modified by Pissidis and Clark); assay type: in vivo
Protocol: The biological activities of the new compounds according to the invention were tested by the methods of Ghosh and Schild (Br. J. Pharmac. Chemoth. 13, 54 1958) and Lai (Gut 5, 327 1964), modified by Pissidis and Clark (Gut 8, 196 1967). The pharmacological tests have shown that the new compounds, when administered intravenously, increase the gastric acid secretion to a great extent. […] It is also remarkable that some of the new compounds highly increase the gastric acid secretion after resorption from the rectum.

[2] = tested on: gastric acid secretion; conditions: in vivo; cited from earlier work

For `CSCC[C@H](NC(=O)[C@H](Cc1c[nH]c2ccccc12)NC(=O)CONC(=O)OC(C)(C)C)C(=O)N[C@@H](CC(=O)O)C(=O)N[C@@H](C(N)=O)c1ccccc1` [BOC-OGly Met D, 2-(tert.-Butoxycarbonyl-aminooxy)-acetyl-L-tryptophyl-L-methionyl-L-aspartyl-D-phenylglycine-amide] (X1-WMD[dPhg]-NH2), the “Gastric acid secretion increasing effect in comparison with that of a 0.2 μg/100 g i.v. dosage of pentagastrin” value (“Gastric acid secretion increasing effect” for short) ([1]; 0.2 μg i.v.) was 28 and the “Gastric acid secretion increasing effect” value ([1]; 2.0 μg i.v.) was 50.

With `CSCC[C@H](NC(=O)[C@H](Cc1c[nH]c2ccccc12)NC(=O)CONC(=O)OC(C)(C)C)C(=O)N[C@@H](CC(=O)O)C(=O)N[C@H](C(N)=O)c1ccccc1` [BOC-OGly Met L, 2-(tert.-Butoxycarbonyl-aminooxy)-acetyl-L-tryptophyl-L-methionyl-L-aspartyl-L-phenylglycine-amide] (X1-WMD[Phg]-NH2) the “Gastric acid secretion increasing effect” value ([1]; 2.0 μg i.v.) was 116, the “Gastric acid secretion increasing effect” value ([1]; 20 μg intestinal (text: 20 μg/100 g body weight)) was 124 and the “Gastric acid secretion increasing effect” value ([1]; 20 μg rectal) was 38.

In the case of `CSCC[C@H](NC(=O)[C@H](Cc1c[nH]c2ccccc12)NC(=O)CCNC(=O)OC(C)(C)C)C(=O)N[C@@H](CC(=O)O)C(=O)N[C@@H](Cc1ccccc1)C(N)=O` [pentagastrin, BOC-β-Ala-Trp-Met-Asp-Phe-NH2, reference compound], the “Effect on gastric acid secretion” value ([1]; administered enterally, even in higher dosages) is reported as “does not increase the gastric acid secretion”.

In the case of H-Trp-Met-Asp-Phe-NH2, the “Gastric acid secretion stimulating effect relative to the total hormone (gastrin)” value [2] is listed as “lower by about one order of magnitude”.
